Patent US5427999A, “Amine adducts as corrosion inhibitors” (Exxon Chemical Patents Inc., priority 1991, dated 1995)

How the values were obtained:
Skeletonema costatum [1] = test: Marine phytoplankton inhibition of growth rate; type: cell-based, Skeletonema costatum (Greville) Cleve, Clone Skel-5; details: 72 h, control compound, measured in this test, read-out: normal growth rate, measured in this test
Protocol: Growth inhibition tests have also been carried out to assess the impact of the compounds on the, marine algae Skeletonema Costatum. This is a test which is becoming required by some offshore authorities, and is therefore of particular interest when considering the practical applications of the compounds.
Test organisms: Skeletonema costatum (Greville) Cleve, Clone Skel-5.
Incubation: 3 days at 14° C., in light/darkness cycles of 14 hrs/10 hrs.
Test samples: Aliquots of each sample are weighed into phytoplankton medium and extracted; moderate shaking for 20 hrs at 14° C.
Control compound: Na-dodecyl-sulphate. Normally a concentration of 1.3 mg/kg gives 30 to 70% of normal growth rate. Measured in this test: 30% to 55%.
Results were calculated as the concentration of compound required to inhibit 50% growth of algae during three days of exposure, termed EC50, given in mg/kg (ppm). The interval EC20 to EC80 is also given.

Skeletonema costatum [2] = details: normally a concentration of 1.3 mg/kg, 4320 min; cited from earlier work

In the case of `CCCCCCCCCCCCOS(=O)(=O)O` [Na-dodecyl-sulphate], the activity at 1.3 mg/kg (Skeletonema costatum [1]) is listed as 30 to 55% and the “normal growth rate, normally given by control compound” value (Skeletonema costatum [2]) is listed as 30 to 70%.
